In patent US20070037752A1, “Novel alanyl-amino peptidase inhibitors for functionally influencing different cells and treating immunological, inflammatory, neuronal, and other diseases” (priority 2003, published 2007):

target: alanyl aminopeptidases (APN) (Homo sapiens, UniProt P15144); assay: Inhibition of alanyl aminopeptidase enzymatic activity, fluorogenic substrate (Ala)2-rhodamine 110; assay type: biochemical; details: Table 3, starred values = ID50; read-out: ID50 APN (values marked with *)
Sequence (P15144 whole entry, species assumed): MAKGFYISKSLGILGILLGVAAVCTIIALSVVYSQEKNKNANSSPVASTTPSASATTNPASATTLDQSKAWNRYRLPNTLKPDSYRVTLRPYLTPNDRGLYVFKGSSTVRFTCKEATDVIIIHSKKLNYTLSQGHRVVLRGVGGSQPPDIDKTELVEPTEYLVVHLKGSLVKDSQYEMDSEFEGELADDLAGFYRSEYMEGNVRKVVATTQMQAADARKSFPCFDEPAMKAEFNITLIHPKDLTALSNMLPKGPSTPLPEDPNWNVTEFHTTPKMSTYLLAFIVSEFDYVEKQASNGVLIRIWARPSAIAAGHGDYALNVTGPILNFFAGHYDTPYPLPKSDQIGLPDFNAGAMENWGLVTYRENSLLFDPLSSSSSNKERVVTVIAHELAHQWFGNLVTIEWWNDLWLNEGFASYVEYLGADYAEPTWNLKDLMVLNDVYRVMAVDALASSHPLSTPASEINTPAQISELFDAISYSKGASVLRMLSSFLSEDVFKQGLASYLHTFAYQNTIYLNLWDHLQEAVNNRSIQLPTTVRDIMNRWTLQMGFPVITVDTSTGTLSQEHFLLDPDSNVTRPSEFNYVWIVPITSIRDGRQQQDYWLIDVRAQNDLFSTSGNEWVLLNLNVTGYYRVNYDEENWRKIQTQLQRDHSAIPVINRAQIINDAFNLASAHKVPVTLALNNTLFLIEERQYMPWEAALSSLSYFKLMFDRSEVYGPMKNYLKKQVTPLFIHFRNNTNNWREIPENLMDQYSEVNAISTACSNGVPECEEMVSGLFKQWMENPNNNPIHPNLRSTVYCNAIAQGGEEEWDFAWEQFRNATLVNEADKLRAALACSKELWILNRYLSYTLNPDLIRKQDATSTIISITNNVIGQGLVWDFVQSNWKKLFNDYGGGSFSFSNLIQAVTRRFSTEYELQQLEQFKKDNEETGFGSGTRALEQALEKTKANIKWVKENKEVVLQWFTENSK
Protocol: The inhibition characteristics measured are referred to as IC-50 values or ID50 values (the latter marked with “*”) for said enzyme. The enzymatic activity was determined by means of the fluorogenic substrate/product (Ala)2-rhodamine 110.

| IC50 [µM] | SMILES |
| --- | --- |
| 73.1 | O=C(Cc1ccccc1)NCC(=O)N/N=C/c1ccco1 [A3.300] |
| 75.8 | O=C(N/N=C/c1ccco1)c1cc(-c2ccccc2Cl)n[nH]1 [A3.303] |
| 81.8 | Cc1ccc(OCC(=O)N/N=C\c2ccco2)c(C)c1 [A3.309] |
| 85.8 | O=C(CCNC(=O)c1ccccc1Br)N/N=C/c1ccco1 [A3.311] |
| 91.2 | O=C(CNC(=O)c1ccccc1Br)N/N=C/c1ccco1 [A3.314] |
| 98.8 | O=C(CNC(=O)c1ccccc1O)N/N=C/c1ccco1 [A3.318] |
| 113 | Cn1cccc1CC(=O)N/N=C\c1ccco1 [A3.320] |
| 132 | O=C(N/N=C\C=C\c1ccco1)c1cc(-c2cccs2)n[nH]1 [A3.324] |
| 146 | CC(C(=O)N/N=C/c1ccco1)n1nnc2ccccc21 (stereo not shown) [A3.327] |
| 155 | O=C(CNC(=O)c1cccc(F)c1)N/N=C/c1ccco1 [A3.333] |
| 161 | C/C(=N\NC(=O)c1cc(-c2ccco2)n[nH]1)c1ccco1 [A3.334] |
| 222 | COc1cccc(C(=O)NCC(=O)N/N=C/c2ccc([N+](=O)[O-])o2)c1 [A3.340] |

Continued, compound first:

| SMILES | IC50 [µM] |
| --- | --- |
| Cn1c(=O)c2c(ncn2CC(=O)N/N=C/C=C\c2ccco2)n(C)c1=O [A3.307] | 79.8 |
| C#CCN1C(c2cnccn2)=NC(CC(C)C)C1C(=O)Nc1c(C)cccc1C (stereo not shown) [A3.319] | 103 |
| COC(=O)c1c(N)ncn1-c1ccccc1 [A3.323] | 126 |
| CC(=O)Oc1ccc2c(=O)c(-c3cnn(-c4ccccc4)c3)c(C(F)(F)F)oc2c1OC(C)=O [A3.325] | 134 |
| CN1C(=O)C(Cc2c[nH]c3ccccc23)NC1=S (stereo not shown) [A3.330] | 146 |
| CCCC1NC(=S)N(c2ccccc2)C1=O (stereo not shown) [A3.332] | 154 |
| COc1cc(C(=O)NCC(=O)N/N=C\c2ccc(C)o2)cc(OC)c1OC [A3.335] | 161 |
| CCOC(=O)c1c(-c2ccccc2)c[nH]c1N [A3.336] | 169 |
| O=C(CN1C(=O)C2C3C=CC(C3)C2C1=O)Nc1ccc(C(F)(F)F)cc1 (stereo not shown) [A3.337] | 223 |
| CN(C)c1ccc(C2NCCS2)cc1 (stereo not shown) [A3.338] | 230 |
| O=C(/C=C/c1ccco1)NCCCN1CCOCC1 [A3.339] | 208 |

same assay, conditions: Table 3, unstarred values; read-out: IC50APN

| IC50 [µM] | SMILES |
| --- | --- |
| 68.9 | O=C(N/N=C/c1ccco1)c1ccc(F)cc1 [A3.296] |
| 69.3 | Cc1ccc(S(=O)(=O)N2CCC(C(=O)N/N=C/c3ccco3)CC2)cc1 [A3.298] |
| 74.7 | O=C(CCc1ccccc1)N/N=C/c1ccco1 [A3.302] |
| 82.9 | O=C(CCn1nnc2ccccc21)N/N=C/c1ccco1 [A3.310] |
| 87.5 | O=C(COc1ccccc1)N/N=C/c1ccco1 [A3.312] |
| 92.2 | O=C(N/N=C/c1ccco1)c1ccccc1[N+](=O)[O-] [A3.315] |
| 142 | COc1cccc(/C=N/NC(=O)c2ccn(C)n2)c1O [A3.328] |
| 143 | O=C(Cc1cccs1)N/N=C\c1ccco1 [A3.329] |

Continued, compound first:

| SMILES | IC50 [µM] |
| --- | --- |
| CC(=O)C1C(c2ccc(N(C)C)cc2)C2C(=O)N(C3CCCCC3)C(=O)N2C1c1sccc1C (stereo not shown) [A3.294] | 68 |
| O=C1C(=Cc2ccc([N+](=O)[O-])o2)C(=O)c2ccccc21 [A3.295] | 68 |
| Cc1ccc(C(=O)N/C(=C\c2ccco2)C(=O)N2CCSCC2)cc1C [A3.297] | 68.9 |
| N#Cc1c(NC(=O)C(C(F)(F)F)C(F)(F)F)sc2c1CCCC2 [A3.299] | 71.4 |
| Oc1ccc(Cl)cc1/N=C/c1ccc(-c2ccc(F)cc2)o1 [A3.305] | 77.3 |
| Cc1nc(-c2ccc(Br)cc2)c(CC(=O)O)s1 [A3.313] | 88.3 |
| COc1ccc(C2NCCS2)cc1OC (stereo not shown) [A3.316] | 92.1 |
| COC(=O)CCC/C=C1/SC[C@@H](NC(=O)c2ccccc2)/C1=N/O [A3.317] | 93.6 |
| COc1c(OCC(O)C(C)(C)O)ccc2c1N=C1OC=CC1C2OC (stereo not shown) [A3.321] | 125 |
| CC1=C(C#N)C(=O)N(CCO)C(=O)/C1=C\c1ccc(-c2ccc(C)c(Cl)c2)o1 [A3.322] | 125 |
| NCCCNC(=O)C1Cc2ncn(Cc3ccccc3[N+](=O)[O-])c2CN1Cc1ccccn1 (stereo not shown) [A3.326] | 138 |
| C/C(=N\NC(=O)c1ccco1)c1ccc(C)o1 [A3.331] | 152 |
